“And” between values parts separate entries of the source, which are not always exact repeats. Equal values may be shown once.
Assay: Plasma stability assay, mouse
Format: in vitro ADME
Details: for Calculated Concentration: 0h standards set to Actual Concentration 100, IS warfarin, replicates
Method: page 32: Aldrich, Saint Louis, MO) were diluted into 0.1 M potassium phosphate buffer (PBS, pH 7.4, KH2PO4, Cat. No: P284-500; K2HPO4, Cat. No: BP363-500, Fisher Scientific, Fair Lawn, NJ) and mixed well. 40 μL of this solution was transferred into the above compounds plates. For the time 0 plate, 3 fold (v:v) cold acetonitrile with warfarin (400 ng/mL) as the internal standard was added to […] and B in PBS, pH 7.4) and no incubation. For the other five time points’ plates, 10 μL NADPH regenerating agent mixer was added to each well to initiate the reaction, the plate was sealed and incubated at 37° C on an orbital shaker (100 rpm) for the required time, followed by quenching of the reaction by adding 3-fold volume of cold acetonitrile with internal standard to each well. The final concentration of each component applied in this reaction was liver microsome protein at 0.5 […] After quenching, all plates were securely sealed and thoroughly mixed at 600 rpm for 10 minutes. Subsequently, centrifugation was performed at 4000 rpm for 20 minutes. The resulting supernatants […] analysis using UPLC–MS/MS. The assessment of metabolic stability involved determining the half- life through a least-squares fit of multiple time points, employing first-order kinetics. Plasma stability assay5: The degradation of human or mouse plasma was assessed by monitoring the gradual reduction of the parent compound over specified time intervals (0, 3, 24, and 48 hours). Human and mouse plasma samples were sourced from GeneTex (Irvine, CA). Test compound stock solutions, prepared at 10 mM in DMSO, were dispensed into triplicate wells of a 96-well microplate using the Labcyte Echo 650 dispenser. For plates, excluding the time 0-hour plate, plasma was […] The plate was sealed, incubated at 37°C on an orbital shaker (100 rpm) for the required duration, and then quenched with cold acetonitrile, incorporating warfarin as the internal standard. In the case of the time 0-hour plate, cold acetonitrile with the internal standard was added to each well before introducing plasma, eliminating page 33: the need for further incubation. Following quenching, all plates were thoroughly mixed at 600 rpm for 10 minutes and centrifuged at 4000 rpm for 20 minutes. Supernatants were transferred to […] MS/MS analysis. Plasma stability was evaluated by determining the half-life through a least-squares fit of multiple time points based on first-order kinetics. Plasma protein binding assay: Test compound stock solutions were prepared at a concentration of 10 mM in DMSO. A Single-Use RED (Rapid Equilibrium Dialysis) device was acquired from Thermo Scientific (Cat. No: 99006, Rockford, IL). The sample preparation for plasma protein binding followed a modified version of Waters' method6. After thawing, plasma was centrifuged at 1000 rpm for 10 minutes to eliminate any particulates. Each compound was then prepared at a concentration of 10 µM in either human or mouse plasma. In the plasma protein binding assessment, 300 µL of spiked plasma solutions were introduced into the sample chamber (indicated by the red ring), while 550 µL of DPBS was added to the adjacent chamber. The plate was sealed and incubated at 37°C on an orbital shaker (100 rpm) for 4 hours. Post -incubation, 50 µL aliquots were withdrawn from each side of the insert and dispensed into a 96 -well storage plate. To create analytically identical sample matrices (matrix matching), an equivalent volume of blank plasma or DPBS was added to the necessary wells, followed by quenching w ith 3-fold (v:v) cold acetonitrile containing warfarin as the internal standard. Subsequently, the sealed plates were well -mixed at 600 rpm for 10 minutes and then centrifuged at 4000 rpm for 20 minutes. Supernatants were transferred to analytical […] Test compound concentrations were quantified in both the buffer and plasma chambers by determining peak areas relative to the internal standard. […]

[1] = mouse plasma, regression of log concentration over time points 0, 3, 24, 48 h

| Compound | Plasma stability (mouse) | Calculated Concentration (mouse plasma, time point 3h) | Calculated Concentration (mouse plasma, time point 24h) | Calculated Concentration (mouse plasma, time point 48h) | Ke [1] | t(1/2) [1] |
| --- | --- | --- | --- | --- | --- | --- |
| O=C1CCC(N2Cc3cc(Nc4noc5ccccc45)ccc3C2=O)C(=O)N1 (stereo not drawn) [SJ3149] | > 10 h |  |  |  |  |  |
| O=C1CCC(N2Cc3cc(Nc4noc5ccccc45)ccc3C2=O)C(=O)N1 (stereo not drawn) [SJ001043149-1] |  | 89.527 and 94.878 and 96.383 | 48.667 and 48.995 and 51.103 | 26.458 and 25.987 and 26.969 | 0.028 | 24.7479 |

Source: article PMC10791743, “Selective CK1α degraders exert antiproliferative activity against a broad range of human cancer cell lines” (Nature Communications, 2024)
